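96-well plates; 48 h exposure; 5 concentrations. Endpoints by linear interpolation between flanking doses. Not reached: highest tested concentration assigned. Definition used: TGI = concentration required for complete inhibition of growth.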
Assays:
Experiment in all cases: NCI tumour cell line growth inhibition, 48 h
[1] = tested on: SK-MEL-28 melanoma
[2] = tested on: UACC-62 melanoma
[3] = tested on: SK-MEL-5 melanoma
[4] = tested on: NCI-H522 lung
[5] = tested on: HL-60(TB) leukemia
[6] = tested on: TK-10 renal
[7] = tested on: A549 NSCLC
[8] = tested on: SNB-19 CNS
[9] = tested on: OVCAR-4 ovarian
[10] = tested on: SN12C renal
[11] = tested on: T-47D breast
[12] = tested on: M14 melanoma
[13] = tested on: COLO 205 colon
[14] = tested on: CCRF-CEM leukemia
[15] = tested on: EKVX NSCLC
[16] = tested on: NCI/ADR-RES ovarian
[17] = tested on: LOX IMVI melanoma
[18] = tested on: MALME-3M melanoma
[19] = tested on: SR leukemia
[20] = tested on: SF-268 CNS

SMILES	TGI [1] [µM]	TGI [2] [µM]	TGI [3] [µM]	TGI [4] [µM]	TGI [5] [µM]	TGI [6] [µM]	TGI [7] [µM]	TGI [8] [µM]	TGI [9] [µM]	TGI [10] [µM]	TGI [11] [µM]	TGI [12] [µM]	TGI [13] [µM]	TGI [14] [µM]	TGI [15] [µM]	TGI [16] [µM]	TGI [17] [µM]	TGI [18] [µM]	TGI [19] [µM]	TGI [20] [µM]
CC(=O)OC1CCN(C(=O)c2ccccc2)CC1CC1(c2cc3ccccc3[nH]2)OCCO1 (stereo not drawn)	> 100	> 100	> 100	> 100	53.6	> 100	> 100	> 100	> 100	> 100	> 100	> 100	> 100	> 100	> 100	> 100	> 100	> 100	–	–
CC(=O)C1C(=O)C(=O)N(c2cccc(C)c2C)C1=O (stereo not drawn)	–	> 100	> 100	–	> 100	> 100	> 100	> 100	–	> 100	> 100	> 100	> 100	–	> 100	> 100	> 100	–	–	–
COc1cc2cc(C(=O)N3CC(CCl)c4c3cc([N+](=O)[O-])c3ccccc43)[nH]c2c(OC)c1OC (stereo not drawn)	> 100	> 100	> 100	> 100	–	> 100	> 100	> 100	> 100	> 100	> 100	> 100	> 100	> 100	> 100	> 78.3	> 100	> 100	19.1	> 100
Cc1ccc(S(=O)(=O)N2CC3OC(C)(C)OC3C2CO)cc1 (stereo not drawn)	> 100	–	> 100	> 100	–	> 100	> 100	–	> 100	> 100	> 100	> 100	> 100	> 100	–	> 100	–	> 100	> 100	> 100
CCOC(=O)c1c(N)nn2c1cc1cccccc12	83.3	50.8	69	46.7	> 100	74.6	> 100	> 100	> 100	> 100	64.4	> 100	78.4	> 100	> 100	57.7	72.9	67.3	–	68.2
O=C(Nc1cc(C(=O)Nc2cccc(S(=O)(=O)O)c2)cc(C(=O)Nc2cccc(S(=O)(=O)O)c2)c1)c1cccc(C(=O)Nc2cc(C(=O)Nc3cccc(S(=O)(=O)O)c3)cc(C(=O)Nc3cccc(S(=O)(=O)O)c3)c2)c1	> 100	> 100	> 100	> 100	65.5	> 100	> 100	–	> 100	> 100	> 100	> 100	> 100	> 100	> 100	> 100	> 100	> 100	–	> 100
CC(=O)Oc1ccc2c(c1)Oc1cc(C(C)=O)ccc1C21OC(=O)c2ccccc21 (stereo not drawn)	> 100	> 100	> 100	> 100	> 100	> 100	> 100	> 100	> 100	> 100	> 100	> 100	> 100	–	> 100	> 100	> 100	> 100	–	> 100
N#Cc1c2ccc([N+](=O)[O-])cc2c(=O)n2c1sc1ccc(C(F)(F)F)cc12	> 100	–	> 100	> 100	–	> 100	> 100	> 100	> 100	> 100	> 100	> 100	> 100	–	> 100	> 100	> 100	> 100	–	> 100
CCOc1ccc(N=NC2C(=O)N(C(=O)CC(=O)Nc3ccccc3OC)N=C2C)cc1 (stereo not drawn)	> 100	> 100	> 100	55.3	22.5	> 52.3	> 100	> 34.8	> 100	> 100	> 100	> 100	> 100	> 100	> 100	> 100	> 100	> 100	–	97
CC1Cc2c(Br)nc(N)nc2NC1=O (stereo not drawn)	> 100	> 100	> 100	> 100	–	> 100	> 100	> 100	> 100	> 100	> 100	> 100	> 100	–	> 100	> 100	> 100	> 100	> 100	> 100
